Converted amounts (≈) assume the structure as drawn.
Tests used:
S. aureus strains = test: In vitro inhibition from PMMA cement bead vehicle; assay type: cell-based, Staphylococcus aureus; conditions: with and without Tobramicin and Vancomycin
S. epidermidis biofilm = test: Biofilm prevention concentration (BPC), BisEDT and antibiotics; assay type: cell-based, Staphylococcus epidermidis; conditions: regardless of antibiotic employed
Protocol: S. epidermidis grown in TSB+2% glucose in polystyrene plates for 48 h at 37° C. Gatifloxacin (GF), clindamycin (CM), minocycline (MC), gentamicin (GM), vancomycin (VM), cefazolin (CZ), nafcillin (NC), and rifampicin (RP). […]

[1] = Uninoculated solubility control plate (drug precipitation in test media); assay type: physicochemical; conditions: uninoculated solubility control plates; BisEDT observation at 32 μg/mL
S. aureus = test: Contaminated open fracture, rat femur critical defect model; assay type: in vivo; conditions: BT gel 5 mg/ml, 1 ml in defect, with Cefazolin 5 mgKg^−1 s.c. twice daily 3 days, day 14
Excerpt: Standard errors of the mean are shown as error bars. Animals euthanized early are not excluded from the analysis, however samples from one animal in group 2 have been excluded due to gross contamination.
The aim of this study was to determine whether BTs will reduce infection in a contaminated open fracture model either on their own or with antibiotics. The contaminated rat femur critical defect model is a well-accepted model and was used for the experiments described in this Example. This model offers a standardized model for comparing various possible treatments and their effects on reducing infection and/or improving healing.
Three formulations of microparticulate BTs were produced in a clinically useful hydrogel gel form as described herein.
Two treatment arms were used: in the first arm, BT was used singularly; in the second arm BT was used in conjunction with a systemic antibiotic (ABx).
Six hours after inoculation with S. aureus, the wound was debrided, irrigated with saline and 1 ml of BT gel inserted within the defect.
Six hours after inoculation with S. aureus, the wound was debrided, irrigated with saline and 1 ml of BT gel added inserted within the defect. The antibiotic used was Cefazolin at a dose equivalent to 5 mgKg^−1 delivered via sub-cutaneous injection twice daily for a total of 3-days following the injury. The first dose was administered immediately prior to debridement.
Six hours after inoculation with S. aureus, the wound was debrided and irrigated with saline. The control animals were also treated with Cefazolin as per the regime described above.
The procedure for the in vivo rat injury model was performed as described by Chen et al. (2002 J. Orthop. Res. 20:142; 2005 J. Orthop. Res. 23:816; 2006 J. Bone Joint Surg. Am. 88:1510; 2007 J. Orthop. Trauma 21:693). The rats were anesthetized and prepped for surgery. The anterolateral aspect of the femoral shaft was exposed through a 3-cm incision. The periosteum and attached muscle was stripped from the bone. A polyacetyl plate (27×4×4 mm) was placed on the anterolateral surface of the femur. The plates were predrilled to accept 0.9-mm diameter threaded Kirschner wires. The bases of these plates were formed to fit the contour of the femoral shaft. Pilot holes were drilled through both cortices of the femur using the plate as a template and threaded Kirschner wire was inserted through the plate and femur. The notches that were 6 mm apart on the plate served as a guide for bone removal. A small oscillating saw was used to create the defect while the tissue was cooled by continuous irrigation in an effort to prevent thermal damage.
Several groups of 10 animals each were inoculated with 1×10^5 CFU of S. aureus and treated with BT alone or in combination with antibiotics 6 hours post-inoculation as described above. The groups were as follows: Bis-EDT gel; MB-11 gel; MB-8-2 gel; Bis-EDT gel & Abx; MB-11 gel & Abx; MB-8-2 gel & Abx; Control (Abx alone).
Animals were euthanized 14 days after surgery and bone and hardware sent for microbiological analysis, the results of which are shown in FIG. 7.

E. coli = test: Broth dilution MIC, BT-antibiotic combinations; assay type: cell-based; conditions: Escherichia coli; E. coli Ampicillin/Chloramphenicol resistant; antibiotic alone
Protocol: Materials & Methods. Susceptibility studies were performed by broth dilution in 96-well tissue culture plates (Nalge Nunc International, Denmark) in accordance with NCCLS protocols (National Committee for Clinical Laboratory Standards. (1997). Methods for Dilution Antimicrobial Susceptibility Tests for Bacteria that Grow Aerobically: Approved Standard M7-A2 and Informational Supplement M100-S10. NCCLS, Wayne, Pa., USA).
Briefly, overnight bacterial cultures were used to prepare 0.5 McFarland standard suspensions, which were further diluted 1:50 (˜2×10^6 cfu/mL) in cation-adjusted Mueller-Hinton broth medium (BBL, Cockeysville, Md., USA). […] Cultures were incubated for 24 h at 37° C. and turbidity was assessed by absorption at 630 nm using an ELISA plate reader (Biotek Instruments, Winooski, Vt., USA) according to the manufacturer's recommendations. […] Viable bacterial counts (cfu/mL) were determined by standard plating on nutrient agar.
The checkerboard method was used to assess the activity of antimicrobial combinations. The fractional inhibitory concentration index (FICI) and the fractional bactericidal concentration index (FBCI) were calculated, according to Eliopoulos et al. (Eliopoulos and Moellering, (1996) Antimicrobial combinations. In Antibiotics in Laboratory Medicine (Lorian, V., Ed.), pp. 330-96, Williams and Wilkins, Baltimore, Md., USA). […]

resistant E. coli = test: MIC in Mueller-Hinton II broth, antibiotic + BisEDT; assay type: cell-based, Escherichia coli; conditions: Escherichia coli, read-out: Drug + BE MIC, Chloramphenicol/Ampicillin resistant E. coli; BE 0.33 μg/ml
Excerpt: Chloramphenicol and ampicillin resistant Escherichia coli were made sensitive to these drugs by the addition of subMIC BisEDT (Table 24).
Tetracycline resistant Escherichia coli were made sensitive to doxycycline by the addition of subMIC BisEDT (Table 25).

[2] = tested on: Streptococcus pneumoniae (SP, PRSP); test: Single-point BisEDT-antibiotic combination FICI; conditions: PRSP 5348
Enterococcus faecalis = test: Single-point BisEDT-antibiotic combination FICI; assay type: cell-based; conditions: E Fc 3121
[3] = tested on: Staphylococcus aureus (MSSA, MRSA, CA-MRSA); test: microbe, parasite or virus in culture; assay type: cell-based
Acinetobacter baumanii = test: Single-point BisEDT-antibiotic combination FICI; assay type: cell-based; conditions: Abau 2594
[4] = tested on: Staphylococcus aureus (SA, MRSA); test: Single-point BisEDT-antibiotic combination FICI; assay type: cell-based
Pseudomonas aeruginosa = test: Single-point BisEDT-antibiotic combination FICI; assay type: cell-based; conditions: PA 1380
Bukholderia multivorans = test: Single-point BisEDT-antibiotic combination FICI; assay type: cell-based; conditions: Bmult 5665
Burkholderia cepacia = test: Single-point BisEDT-antibiotic combination FICI; assay type: cell-based; conditions: Bcep 1756
Klebsiella pneumoniae = test: Single-point BisEDT-antibiotic combination FICI; assay type: cell-based; conditions: KP 1231
Escherichia coli = test: Single-point BisEDT-antibiotic combination FICI; assay type: cell-based
[5] = tested on: Enterococcus faecium (VSEfm, VREfm); test: microbe, parasite or virus in culture; assay type: cell-based; conditions: vancomycin-resistant Enterococcus faecium (VREfm)
[6] = neutral pH; cited from earlier work

In the case of C1C[S][Bi]([S]CC[S][Bi]2[S]CC[S]2)[S]1 [BisEDT, bismuth-1,2-ethanedithiol], the “Effect on S. aureus strains in vitro from PMMA cement beads” value (S. aureus strains) is reported as “inhibitory effects”, the “Biofilm at 0.1 μg/ml BisEDT” value (S. epidermidis biofilm) is reported as “no biofilm was detected” and the “Solubility in MIC test media” value [1] is reported as “trace precipitate”. The “S. aureus infection detected on hardware, effect on Cefazolin activity” value (S. aureus) was “did not appear to affect Cefazolin activity” and the “S. aureus infection of injured bone, effect on Cefazolin activity” value (S. aureus) was “enhanced”.
With O=C(N[C@H](CO)[C@H](O)c1ccc([N+](=O)[O-])cc1)C(Cl)Cl [CM, chloramphenicol] the MIC (E. coli) was 220 µg/mL and the MIC (resistant E. coli) was 12.7 µg/mL.
For C[C@@H](O)[C@H]1C(=O)N2C(C(=O)O)=C(SCCN=CN)C[C@H]12 [Imipenem], the “FICI, single-point BisEDT-antibiotic combination” value [2] was 0.43, the “FICI, single-point BisEDT-antibiotic combination” value (Enterococcus faecalis) was 0.73 and the MIC90 ([3]; MSSA clinical isolates) was 0.03 µg/mL (≈ 0.1 µM). The MIC ([3]; S. aureus 29213, one value on a single run, one dilution below published QC range, read-out: MIC, quality control strain) was 0.008 µg/mL (≈ 0.0267 µM), the “FICI, single-point BisEDT-antibiotic combination” value (Acinetobacter baumanii) was 0.81 and the “FICI, single-point BisEDT-antibiotic combination” value ([4]; MRSA 773) was 1.48. For the same molecule, the “FICI, single-point BisEDT-antibiotic combination” value ([4]; SA 100) was 0.67, the “FICI, single-point BisEDT-antibiotic combination” value (Pseudomonas aeruginosa) was 1.12 and the “FICI, single-point BisEDT-antibiotic combination” value (Bukholderia multivorans) was 1.23. The “FICI, single-point BisEDT-antibiotic combination” value (Burkholderia cepacia) was 0.73, the “FICI, single-point BisEDT-antibiotic combination” value (Klebsiella pneumoniae) was 1.23 and the “FICI, single-point BisEDT-antibiotic combination” value (Escherichia coli; EC 102) was 1.11. The “FICI, single-point BisEDT-antibiotic combination” value (Escherichia coli; EC 2232) was 1.29.
In the case of CC(=O)NC[C@H]1CN(c2ccc(N3CCOCC3)c(F)c2)C(=O)O1 [Linezolid], the “FICI, single-point BisEDT-antibiotic combination” value [2] is reported as 1.11, the “FICI, single-point BisEDT-antibiotic combination” value (Enterococcus faecalis) is reported as 1.23 and the “FICI, single-point BisEDT-antibiotic combination” value ([4]; MRSA 773) is reported as 1.23. For the same molecule, the “FICI, single-point BisEDT-antibiotic combination” value ([4]; SA 100) was 1.23 and the MIC90 [5] was 2 µg/mL (≈ 5.93 µM).
For Zinc pyrithione, the Solubility in water [6] is listed as 8 ppm.
